Measurements published in patent publication US20260108513A1 (Pfizer Inc., priority 2022, published 2026).

Tested on: mCRPC patients
Assay: TALAPRO-2 Part 2: safety, adverse events and supportive care (safety population)
Assay type: in vivo, human
Conditions: talazoparib+enzalutamide group
Text: This population was the primary population for evaluating safety.
Treatment-emergent is defined as the time between the first dose of study treatment to 28 days after the last dose of the last study treatment, or before any new antineoplastic therapy, whichever occurs first.

Structure (SMILES): Cn1ncnc1[C@H]1c2n[nH]c(=O)c3cc(F)cc(c23)N[C@@H]1c1ccc(F)cc1 [talazoparib, (8S,9R)-5-fluoro-8-(4-fluorophenyl)-9-(1-methyl-1H-1,2,4-triazol-5-yl)-8,9-dihydro-2H-pyrido[4,3,2-de]phthalazin-3(7H)-one]
- median time to onset of first G≥3 anemia: 3.3 months
- recurrent G3-4 anemia: 20.6%
